Article PMC8434012 (Molecules, 2021)
Structures can show the parent of a compound that is named as a salt.

Columns and labels:
[1] = rat, in vivo, po; cited from earlier work
[2] = tested on: SH-SY5Y neuroblastoma cells; experiment: MTT cell viability assay, Aβ(25–35)-induced neurotoxicity; type: cell-based; details: Aβ(25–35) 25 μM
Method: Cells were cultured in MEM supplemented with 10% heat-inactivated defined FBS, and an antibiotic mixture of 100 units/mL of penicillin and 100 μg/mL streptomycin, and grown at 37 °C in a humid atmosphere with 5% CO2.
Following the treatment, cell viability was assessed using MTT reduction assay. After adding 10 μL/well of MTT (5 mg/L) and incubating for 4 h, the supernatants were removed and 100 μL of DMSO was added in wells. After 1 h incubation at room temperature in the microshaker, the absorbance of the sample was measured by the microplate spectrophotometer reader (Molecular Devices, Sunnyvale, CA, USA) at 570 nm. The cell viability rate (%) was calculated as the absorbance of treated cells divided by that of control cells. The viability of the control cells was defined as 100%. Three independent experiments were performed in triplicate.

COc1cc2c(cc1OC)C(=O)C(CC1CCN(Cc3ccccc3)CC1)C2 (centres unmarked) [DNP, Donepezil hydrochloride]
donepezil excreted into urine [1]: 1.52%

Aβ(25–35): β-amyloid fragment used to induce neurotoxicity in SH-SY5Y cells (GSNKGAIIGLM; Amyloid-beta protein 42; UniProt P05067 696-706, looked up, fragment)
reduction of cell viability compared to vehicle treatment [2]: 36.0%
